One sequence from patent US20240327471A1, “IL-10 INDUCING POLYPEPTIDES AND USES THEREOF” (ENTEROME S.A., priority 2021, published 2024) can be followed below.

For assay [1], the system named is monocyte-derived dendritic cells (MoDCs). Description: NAT_29 dose response, IL-10 secretion from MoDCs co-stimulated with LPS (AlphaLISA). Conditions: 0.1 to 1000 nM; LPS 100 ng/ml; 24 hours. The assay is classed as cell-based, human. On the procedure: To investigate the IL-10 inducing/enhancing capacity of NAT_29, in vitro IL-10 secretion of human immune cells in the presence of different doses of NAT_29 was tested. Briefly, human CD14+ monocytes were isolated from peripheral blood mononuclear cells (PBMCs) from healthy human volunteers by density gradient centrifugation using SepMate™-50 IVD tubes (Stemcell, Ref. 85460). The obtained PBMCs were washed thrice with Dulbeccos's phosphate buffered saline (PBS, Sigma, D88537) and lysed 10 min at room temperature in Red blood Lysis buffer 1X (Miltenyi Biotec, 130-094-183). Cells were washed with MACS buffer (Miltenyi Biotec, 130-091-221) and counted using the trypan blue dye exclusion method. CD14+monocytes were sorted using anti-human CD14 Microbeads (Miltenyi Biotec, 130-050-201) as per manufacturer's protocol. Positive CD14+ fractions were collected and seeded at 2×10^4 cells per well in 384 well plates in IMDM medium (Gibco, 12440-046) supplemented with 10% FBS and 1X antibiotic solution.
Monocyte-derived dendritic cells (MoDCs) were derived from the differentiation of CD14+ cells, obtained after the selective sorting. […]
[…] IL-10 secretion were measured at 24 hours by AlphaLISA® on cell supernatants according to the supplier's protocol and read on an Envision plate reader (Perkin Elmer).

For another assay, the system named is monocytes. The assay can be described thus: Kinetics of IL-10, TNF-α and IL-6 secretion from monocytes co-stimulated with LPS (AlphaLISA). The format is cell-based, human. Conditions: 1 μM, LPS 10 ng/ml. How it is done:
To confirm the anti-inflammatory potential of NAT_29 (SEQ ID NO: 1), a kinetic study was performed to test the concomitant secretion of IL-10 and the major pro-inflammatory cytokines TNF-α and IL-6. To this end, monocytes were obtained as described in Example 3 and stimulated with 1 μM NAT_29 polypeptide (SEQ ID NO: 1), co-stimulated with 10 ng/ml of LPS from E. coli O111: B4 (InvivoGen, tlrl-eblps) and placed in humidified CO2 incubator at 5% CO2/37° C. for 72 h. IL-10, TNF-α and IL-6 secretion were measured at 5, 10, 24, 48 and 72 hours by AlphaLISA® on cell supernatants according to the supplier's protocol (Perkin, ref. AL218F, AL208F, AL223F) and read on an Envision plate reader (Perkin Elmer).
(Bead proximity is the source of the signal in Alpha formats.)

The test system of the next assay is TNBS-induced colitis. Description: Acute colitis induced by TNBS in rats (Wallace score, colon Lipocalin-2, mortality). The format is in vivo, Sprague-Dawley rats. The conditions noted are these: intrarectal; for Wallace score: once a day, evaluated 4 days after TNBS. The source says:
Next, anti-inflammatory properties of the NAT_29 polypeptide (SEQ ID NO: 1) have been evaluated in the 2,4,6-trinitrobenzene sulfonic acid (TNBS)-induced colitis model. The model of colitis induced by TNBS in rats is a validated animal model to evaluate the anti-inflammatory properties of drugs in intestinal bowel diseases (IBD). TNBS induces deep inflammation resulting in necrosis (with transmural destruction of the intestine wall) of the colon. This model is well-characterized, reliable, reproducible, and admitted by regulatory authorities in IBD (e.g., as described in Antoniou, E., et al. (2016). The TNBS-induced colitis animal model: An overview. Annals of medicine and surgery, vol. 11, 9-15, which is incorporated herein in its entirety).
To this end, the NAT_29 polypeptide (SEQ ID NO: 1) was administered by intrarectal instillation at two different concentrations (1 and 0.1 μM) in the model of acute colitis induced by TNBS (intrarectal administration at 80 mg/kg) in Sprague-Dawley rats. The anti-inflammatory effects were evaluated at the macroscopic level using validated score of Wallace and compared to those induced by the positive control (5-ASA) administered also by intrarectal instillation.
Resolution of inflammation was also evaluated using colon Lipocalin-2 (Lcn-2) quantification. Lipocalin-2, also known as neutrophil gelatinase-associated lipocalin (NGAL), is considered as a clinically relevant biomarker of IBD. […] In rodent models of colitis, a strong association has been shown between elevated levels of Lcn-2 and colitis severity.
Male Sprague-Dawley rats (Body weight: around 100-150 g) were allocated randomly and blindly 4 per cage and acclimated for one week. Rats were obtained from Janvier Laboratoires, Le Genest Saint-Isle, France.
The tested products were administered once a day by intrarectal instillation (500μl) in a prophylactic and therapeutic mode starting at day -5, i.e. 5 days before colitis induction (DO) and until euthanasia at D4, corresponding to 9 treatment days in total.
For colitis induction, Sprague Dawley rats were anesthetized for 2 hours using a subcutaneous injection of xylazine at 12.5 mg/kg/ketamin at 25 mg/kg. […] The TNBS solution at 80 mg/kg was prepared based on the mean body weight of rats, which is recorded before the TNBS solution preparation.
NAT_29 was solubilized in PBS and the active concentration for animal treatment was calculated assuming a maximum volume of colon-rectum content in rat of 3.5ml. […]
Animals were sacrificed 4 days (D4) after TNBS administration (DO) for evaluation of the intensity of colitis. Samples from distal colon were collected and used for macroscopic assessments and lipocalin quantification. […]

Take “KKGSRSCFFIYLDRGTKKGSRSCFFYLP (NAT_29) [28-amino-acid fragment of microbiota protein ID3166]”: the “IL-10 secretion from MoDCs” value in assay [1] was “highest IL-10 levels were measured in both cell types at the highest concentration of NAT_29 tested”. Moreover, in the assay on monocytes (5, 10, 24, 48 and 72 hours), the IL-6 secretion entry is recorded as “no significant secretion” and the TNF-a secretion result is on record as “no significant secretion”. The “IL-10 secretion, fold in respect to LPS, peak” value in the assay with monocytes (peak at 24 h, mean of six monocyte donors) stood at 2 fold. In the assay with monocytes (until the end of the experiment (72 h)), the “IL-10 secretion, fold in respect to LPS, after peak” value is 1,5 Fold. For the same sequence, in the assay with TNBS-induced colitis (final concentration of 0.1 μM), the Wallace score result was “protective effect (albeit not significant)”. In addition, the “lipocalin-2 level in the colon (ELISA)” value in the assay with TNBS-induced colitis (final concentration of 0.1 μM, 4 days after TNBS) is “slight decrease of lipocalin-2 level (albeit not significant)”. Further, in the assay on TNBS-induced colitis (final concentration of 1 μM), the Wallace score entry is listed as “statistically protective effect”. In the assay with TNBS-induced colitis (final concentration of 1UM, 4 days after TNBS), the “Lipocalin levels in the colon (ELISA)” value is “significant decrease of Lipocalin levels”.
